Our source for the IC50 values is patent publication US20110288082A1, “METHODS AND COMPOSITIONS FOR INHIBITION OF THE TRANSITIONAL ENDOPLASMIC RETICULUM ATPASE” (priority 2010, published 2011).

One assay concerns the target p97 (Homo sapiens, UniProt P55072). The experiment in a line: p97 ATPase assay (Kinase Glo Plus; biomol green for compounds that interfere with luciferase). Type of assay: biochemical. Summed up:
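Purified p97 in 50 mM Tris pH 7.4, 20 mM MgCl2, 1 mM EDTA, 0.5 mM TCEP, preincubated 10 min with compound (0–30 μM, triplicate), then ATP 60 min at room temperature. Remaining ATP read by Kinase Glo Plus luminescence, or biomol green at 630 nm for luciferase-interfering compounds; % activity versus DMSO and no-enzyme controls, mean ± SE.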
Background: In Kinase-Glo more light means more ATP remaining.

The test system of assay [1] is p97-dependent Ub^G76V-GFP degradation in HeLa cells. The assay can be described thus: Ub^G76V-GFP degradation (turn-over) assay. Format: cell-based, human. The note with it: Homo sapiens, HeLa. Summed up:
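HeLa cells expressing Ub^G76V-GFP were imaged, and mean GFP intensity per cell area was taken over 300-500 cells, background-subtracted and normalized to DMSO-treated basal intensity. The degradation rate constant k with compound is expressed as percent of the DMSO control k.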

Setting [2] is: read-out: IC50 (μM) Ub^G76V-GFP turn over, p97-dependent Ub^G76V-GFP degradation turn-over assay.
The mark [3] stands for this setting: purified p97, ATP, 60 min room temperature, mean +/- standard error.
Setting [4] is: read-out: IC50 (μM) Ub^G76V-GFP turn over, Ub^G76V-GFP-expressing HeLa cells, degradation rate constant k from 90 to 180 min, mean +/- standard error.

Read-outs that look alike come from different tables or passages of the source.

p97, sequence (P55072 2-806 limits assumed): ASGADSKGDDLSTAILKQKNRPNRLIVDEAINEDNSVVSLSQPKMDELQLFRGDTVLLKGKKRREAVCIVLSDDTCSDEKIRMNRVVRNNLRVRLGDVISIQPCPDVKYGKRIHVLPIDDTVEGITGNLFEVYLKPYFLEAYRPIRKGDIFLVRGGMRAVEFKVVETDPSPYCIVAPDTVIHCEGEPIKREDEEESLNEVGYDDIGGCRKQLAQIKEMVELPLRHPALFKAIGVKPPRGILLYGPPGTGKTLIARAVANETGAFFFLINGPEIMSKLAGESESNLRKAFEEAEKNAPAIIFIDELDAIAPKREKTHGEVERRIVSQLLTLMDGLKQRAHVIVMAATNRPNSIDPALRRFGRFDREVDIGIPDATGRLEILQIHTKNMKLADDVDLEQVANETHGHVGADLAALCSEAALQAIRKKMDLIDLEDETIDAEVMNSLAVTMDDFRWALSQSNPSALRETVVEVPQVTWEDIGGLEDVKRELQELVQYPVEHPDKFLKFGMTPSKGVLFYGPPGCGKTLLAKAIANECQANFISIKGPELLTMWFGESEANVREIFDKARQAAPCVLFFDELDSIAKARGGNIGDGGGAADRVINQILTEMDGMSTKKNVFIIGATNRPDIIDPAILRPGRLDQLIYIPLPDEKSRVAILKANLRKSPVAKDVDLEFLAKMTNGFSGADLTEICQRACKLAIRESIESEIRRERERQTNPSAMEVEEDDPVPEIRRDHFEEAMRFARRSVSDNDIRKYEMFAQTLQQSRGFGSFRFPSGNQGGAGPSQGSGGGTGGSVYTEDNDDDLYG

What is called IC50 is the point on the concentration scale where inhibition reaches its midpoint. With `COc1cccc2c(NCc3ccccc3)nc(N(C)c3ccccc3)nc12` [XI-9], the half-maximal inhibitory concentration (IC50) on p97 (p97 ATPase assay) was greater than 30 µM; in assay [1] (setting [2]) it was 9.2 ± 1.2 µM.

On to `COc1cccc2c(NCc3ccccc3)nc(Nc3ccccc3O)nc12` [XI-10], for which the IC50 at p97 (setting [3]) was 2.6 ± 0.4 µM; in assay [1] (setting [4]) it was 2.8 ± 0.5 µM.

For `COc1cccc2c(NCc3ccccc3)nc(NC(C)c3ccccc3)nc12` (stereo not shown) [XI-11], the IC50 at p97 (setting [3]) is 12 ± 5 µM; in assay [1] (setting [4]) it was 2.1 ± 0.7 µM.

Take `COc1cccc2c(NCc3ccccc3)nc(N(C)Cc3ccccc3)nc12` [XI-12]: the IC50 is 7 ± 3 µM at p97 (setting [3]) and greater than 20 µM in assay [1] (setting [4]).

As to `COc1cccc2c(NCc3ccccc3)nc(NCC3CCCCC3)nc12` [XI-13], the IC50 on p97 (setting [3]) stood at 5.4 ± 0.9 µM; in assay [1] (setting [4]), 4.2 ± 1 µM.

With `COc1cccc2c(NCc3ccccc3)nc(NCc3cncs3)nc12` [XI-15], the IC50 is 11 ± 1 µM at p97 (setting [3]) and 10 ± 3 µM in assay [1] (setting [4]).

As to `COc1cccc2c(NCc3ccccc3)nc(Nc3cc(C)cc(F)c3)nc12` [XI-18], the IC50 at p97 (setting [3]) is 1.5 ± 0.2 µM; in assay [1] (setting [4]) it was 7.1 ± 0.5 µM.

In the case of `COc1cccc2c(NCc3ccccc3)nc(N3CCN(C(C)=O)CC3)nc12` [XI-19], the IC50 is greater than 30 µM at p97 (p97 ATPase assay) and greater than 20 µM in assay [1] (setting [2]).

For the compound `COc1cccc2c(NCc3cncs3)nc(N3CCOc4ccccc43)nc12` [XII-1], the IC50 on p97 (p97 ATPase assay) was determined as 38 ± 7 µM; in assay [1] (setting [2]), 20 ± 3 µM.

In the case of `COc1cccc2c(NCc3cccc(N(C)C)c3)nc(N3CCOc4ccccc43)nc12` [XII-2], the results for the IC50 (at p97 (p97 ATPase assay); in assay [1] (setting [2])) were 52 ± 10 µM and 19 ± 4 µM, respectively.

Turning to `COc1cccc2c(NCc3ccc(F)cc3)nc(N3CCOc4ccccc43)nc12` [XII-4], the IC50 on p97 (setting [3]) was found to be 1.9 ± 0.4 µM; in assay [1] (setting [4]), 3.7 ± 0.6 µM.

Consider `COc1cccc2c(NCc3cccs3)nc(N3CCOc4ccccc43)nc12` [XII-5], for which the figures for the concentration for half-maximal inhibition (IC50) (on p97 (setting [3]); in assay [1] (setting [4])) were 1.2 ± 0.2 µM and 3 ± 0.6 µM, respectively.

As for `COc1cccc2c(NCC3CCCCC3)nc(N3CCOc4ccccc43)nc12` [XII-6], the IC50 is 7.4 ± 0.9 µM at p97 (setting [3]) and 8.2 ± 1 µM in assay [1] (setting [4]).

Take `COc1cccc2c(NCc3ccccn3)nc(N3CCOc4ccccc43)nc12` [XII-7]: the IC50 at p97 (setting [3]) is 19 ± 5 µM; in assay [1] (setting [4]), 15 ± 4 µM.

On to `COc1cccc2c(NCc3ccccc3O)nc(N3CCOc4ccccc43)nc12` [XII-8], for which the IC50 on p97 (setting [3]) came out at 4.6 ± 1 µM; in assay [1] (setting [4]) it was 6 ± 0.6 µM.

Regarding `COc1cccc2c(NCc3ccccc3N(C)C)nc(N3CCOc4ccccc43)nc12` [XII-9], the results for the IC50 (at p97 (p97 ATPase assay); in assay [1] (setting [2])) were 47 ± 22 µM and 4.5 ± 0.5 µM, respectively.

Turning to `COc1cccc2c(NCc3ccc(O)cc3)nc(N3CCOc4ccccc43)nc12` [XII-10], the IC50 stood at 2.4 ± 0.5 µM at p97 (setting [3]) and 7.3 ± 1 µM in assay [1] (setting [4]).

In the case of `COc1cccc2c(N3CCOc4ccccc43)nc(N3CCOc4ccccc43)nc12` [XII-11], the IC50 at p97 (p97 ATPase assay) was greater than 30 µM; in assay [1] (setting [2]), 8.1 ± 1.8 µM.

Turning to `Nc1nc(CCl)nc(N(c2ccccc2)c2ccccc2)n1` [XIII], the results for the IC50 (on p97 (setting [3]); in assay [1] (setting [4])) were 13 ± 5 µM and 10 ± 2 µM, respectively.

`CC(C)c1ccc(Nc2nc(N)nc(CCl)n2)cc1` [XIV]: the figures for the IC50 (at p97 (setting [3]); in assay [1] (setting [4])) were 15 ± 5 µM and 14 ± 2.4 µM, respectively.

Take `CCc1nc2ccccc2n1CC(=O)OCC(=O)C(C#N)=C1Nc2ccccc2N1` [XIX]: the IC50 on p97 (setting [3]) was 14 ± 6 µM; in assay [1] (setting [4]), 7.2 ± 1.1 µM.

`CC(C)Nc1nc(Nc2cccc(Cl)c2)nc2ccccc12` [XLII]: the IC50 was greater than 30 µM on p97 (p97 ATPase assay) and 11 ± 2 µM in assay [1] (setting [2]).

On to `COc1ccc(Nc2nc(N3CCN(c4ccc([N+](=O)[O-])cc4)CC3)nc3ccccc23)c(OC)c1` [XLIX], for which the IC50 stood at 43 ± 13 µM at p97 (p97 ATPase assay) and 70 ± 16 µM in assay [1] (setting [2]).

For the compound `COc1ccc(Nc2nc(N3CCN(S(=O)(=O)c4ccc(C)cc4)CC3)nc3ccccc23)cc1` [XLVIII], the IC50 amounted to 22 ± 12 µM on p97 (p97 ATPase assay) and 39 ± 18 µM in assay [1] (setting [2]).

Turning to `c1ccc(CNc2nc(N3CCN(c4ccccc4)CC3)nc3ccccc23)cc1` [XLVII], the IC50 came out at 34 ± 11 µM at p97 (p97 ATPase assay) and 35 ± 5 µM in assay [1] (setting [2]).

`CC(Nc1nc(N2CCOCC2)nc2ccccc12)c1ccccc1` (stereo not shown) [XLVI]: the IC50 at p97 (p97 ATPase assay) was 34 ± 10 µM; in assay [1] (setting [2]) it was 36 ± 0.3 µM.

On to `CN1CCN(c2nc(NCc3ccccc3)c3ccccc3n2)CC1` [XLV], for which the IC50 at p97 (p97 ATPase assay) came to 53 ± 18 µM; in assay [1] (setting [2]), 31 ± 6 µM.

On to `N#CC(C(=O)COC(=O)CCC(=O)c1ccc2c(c1)OCCO2)=C1Nc2ccccc2N1` [XVIII], for which the IC50 is 10 ± 4 µM on p97 (setting [3]) and 6.3 ± 0.6 µM in assay [1] (setting [4]).

In the case of `Nc1nc(CCl)nc(Nc2ccc(Cl)c(Cl)c2)n1` [XVII], the IC50 at p97 (setting [3]) came out at 15 ± 4 µM; in assay [1] (setting [4]) it was 5.7 ± 0.8 µM.

As to `Cc1c(Cl)cccc1Nc1nc(N)nc(CCl)n1` [XVI], the IC50 on p97 (setting [3]) was found to be 18 ± 8 µM; in assay [1] (setting [4]), 5.9 ± 1 µM.

As to `Nc1nc(CCl)nc(Nc2ccc(Oc3ccccc3)cc2)n1` [XV], the IC50 is 14 ± 5 µM on p97 (setting [3]) and 3.7 ± 0.6 µM in assay [1] (setting [4]).

For `COc1cccc2c(NCc3ccccc3)nc(-n3c(N)nc4cc(C)c(C)cc43)nc12` [XXI-1], the values for the IC50 (on p97 (p97 ATPase assay); in assay [1] (setting [2])) were 2 ± 0.4 µM and 89 ± 39 µM, respectively.

As for `c1ccc(CNc2nc(N3CCN(Cc4ccccc4)CC3)nc3ccccc23)cc1` [XXIII], the IC50 stood at 33 ± 8 µM at p97 (p97 ATPase assay) and 12 ± 1 µM in assay [1] (setting [2]).

For the compound `Clc1ccccc1-c1nc(N2CCCc3ccccc32)c2ccccc2n1` [XXIV], the IC50 at p97 (p97 ATPase assay) is greater than 30 µM; in assay [1] (setting [2]), 11 ± 0.8 µM.

`COc1ccc(Nc2nc(Nc3ccc(OC)cc3)c3ccccc3n2)cc1` [XXV-1]: the IC50 at p97 (p97 ATPase assay) was determined as 22 ± 4 µM; in assay [1] (read-out: IC50 (μM) Ub^G76V-GFP turn over), 23 ± 3 µM.

For the compound `Clc1cccc(Nc2nc(Nc3ccccc3)c3ccccc3n2)c1` [XXV-2], the IC50 was 34 ± 16 µM on p97 (p97 ATPase assay) and 12 ± 2 µM in assay [1] (setting [2]).

Turning to `c1ccc(CNc2ccnc(N3CCOc4ccccc43)n2)cc1` [XX], the IC50 came out at 2.9 ± 0.2 µM at p97 (p97 ATPase assay) and 27 ± 3 µM in assay [1] (setting [2]).

As to `Cc1nc(N2CCOc3ccccc32)nc(NCc2ccccc2)c1C` [X], the IC50 at p97 (setting [3]) is 1.1 ± 0.2 µM; in assay [1] (setting [4]), 10 ± 1 µM.
